Laboratory results: ChEMBL document CHEMBL1132329, “Synthesis and histone deacetylase inhibitory activity of new benzamide derivatives” (J Med Chem, 1999)

Target: Histone deacetylase
Assay: Inhibitory activity against partially purified histone deacetylase of human leukemia K562 cells.
Assay type: cell-based

| Structure (SMILES) | IC50 [µM] |
| --- | --- |
| Nc1cccc(NC(=O)c2ccc(CNC(=O)OCc3cccnc3)cc2)c1 | > 100 |
| Cc1ccc(NC(=O)c2ccc(CNC(=O)OCc3cccnc3)cc2)c(N)c1 | > 100 |
| Nc1ccc(F)cc1NC(=O)c1ccc(CNC(=O)OCc2cccnc2)cc1 | 6 |
| CCCC(=O)[O-].[Na+] [SODIUM BUTYRATE] | 140 |
| CC(=O)Nc1ccccc1NC(=O)c1ccc(CNC(=O)OCc2cccnc2)cc1 | > 100 |
| Cc1ccc(N)c(NC(=O)c2ccc(CNC(=O)OCc3cccnc3)cc2)c1 | 2.8 |
| Nc1ccc(NC(=O)c2ccc(CNC(=O)OCc3cccnc3)cc2)cc1 | > 100 |
| Cc1cccc(NC(=O)c2ccc(CNC(=O)OCc3cccnc3)cc2)c1N | > 100 |
| O=C(NCc1ccc(C(=O)Nc2ccccc2O)cc1)OCc1cccnc1 | 2.2 |
| O=C(NCc1ccc(C(=O)Nc2ccccc2)cc1)OCc1cccnc1 | > 100 |
| COc1ccc(NC(=O)c2ccc(CNC(=O)OCc3cccnc3)cc2)c(N)c1 | 44 |
| COc1ccc(N)c(NC(=O)c2ccc(CNC(=O)OCc3cccnc3)cc2)c1 | 4.6 |
| Nc1ccc(Cl)cc1NC(=O)c1ccc(CNC(=O)OCc2cccnc2)cc1 | 7.7 |
| Nc1cc(Cl)ccc1NC(=O)c1ccc(CNC(=O)OCc2cccnc2)cc1 | 40 |
